The source of these data is patent US10369138B2, “Monobactam organic compounds for the treatment of bacterial infections” (Novartis AG, priority 2014, dated 2019).

Holding throughout (format): cell-based
Assay [1] deals with E. coli NB27273-CDY0026 (parent). Briefly: MIC by broth microdilution, isogenic E. coli parent strain. Conditions: Escherichia coli, read-out: Strain 1 MIC. On the procedure:
(§1) Bacterial isolates were cultivated from −70° C. frozen stocks by two consecutive overnight passages at 35° C. in ambient air on 5% blood agar (Remel, Lenexa, Kans.). Quality control and P. aeruginosa ATCC 27853) is from the American Type Culture Collection (ATCC; Rockville, Md.) and PAO1 was received from Dr. K. Poole.
(§2) Strain NB27273 (BW25113 pspB::Km^r) was obtained from the Keio transposon insertion collection. The strain has the pspB gene replaced by a kanamycin resistance marker (BW25113 pspB::Km^r). This strain was cured of the transposon in pspB via FLP recombinase using published methodology. The resulting strain, BW25113 pspB, was used as a host for multicopy vectors expressing key β-lactamases. Multicopy plasmids directing constitutive expression of β-lactamases were established as follows: Synthetic, codon optimized genes encoding E. coli KPC2 and SHV12 β-lactamases were made by DNA2.0 (Palo Alto, Calif.). Each of the synthetic fragments were designed to contain NotI and NcoI restriction sites at their termini, allowing ligation into a NotI/NcoI digested pET28a(+) derivative for protein expression. […] The codon optimized nucleotide sequences and relevant primer recognition information is shown below:
(§3) The PCR products were then digested with XhoI and EcoRI and ligated into similarly digested plasmid pAH63-pstS(BlaP). Plasmid pAH63-pstS(BlaP) is a derivative of plasmid pAH63 (J Bacteriol: 183(21): 6384-6393) made by cloning the TEM-1 (bla) promoter and signal peptide encoding region from plasmid pBAD (J Bacteriol. 1995 July 177(14):4121-30) into plasmid pAH63. This fragment was PCR amplified from pBAD using primer pair E192 (ttcaCTGCAGtgaacgttgcgaagcaacggC) (SEQ ID NO:13) and E194 (TCGAggatcctcgagagcaaaaacaggaaggcaaaatgccg) (SEQ ID NO:14), digested with PstI and BamHI and inserted into similarly digested plasmid pAH63. Therefore, expression of β-lactamases from pAH63-pstS(BlaP) based constructs is constitutive and the signal sequence is provided to direct these proteins to the periplasm. […] To accomplish this, the inserts encompassing the β-lactamase genes, with the associated TEM promoter and signal sequences, were PCR amplified from their corresponding vectors using primer E269 (ccgTCTAGAcggatggcctttttgcgtttc) (SEQ ID NO:15) and E202 (aatcGAATTCttactgaccattaacgcccaagc) (SEQ ID NO:16) for the KPC2 construct and E204 (aatcGAATTCttaacgctgccagtgctcaatc) (SEQ ID NO:17) for the SHV12 construct. These fragments were then digested with XbaI and EcoRI, and each was inserted into pBAD18-kan that had been digested with the same enzymes to generate a pair of multicopy vectors expressing KPC2 and SHV12 respectively. These vectors were transformed into BW25113 pspB to generate strains NB27273-CDY0033 (expressing KPC2) and NB27273-CDY0030 (expressing SHV12). The pBAD18-kan vector also contains the TEM promoter region and signal sequence, (but lacks any intact β-lactamase genes) and was transformed into BW25113 pspB using standard protocols to generate the control strain NB27273-CDY0026. […] Susceptibility Testing
(§4) Minimal Inhibitory Concentrations (MICs) were determined by the broth microdilution method in accordance with Clinical and Laboratories Institute (CLSI) guidelines. In brief, fresh overnight bacterial cultures were suspended in sterile saline, and adjusted to a 0.5 McFarland turbidity standard. Bacterial suspensions were then diluted in cation adjusted Mueller-Hinton Broth (MHB II; BBL) to yield a final inoculum of approximately 5×10^5 colony-forming units (CFU)/mL. A master plate of antibiotics was prepared at a concentration equivalent to hundred-fold the highest desired final concentration in 100% dimethyl sulfoxide (DMSO). The master antibiotic plate was then diluted by serial twofold dilution with a multichannel pipette. The resulting dilution series of compounds were diluted 1:10 with sterile water leading to a 10% DMSO final concentration.

Assay [2] has as its system E. coli NB27273-CDY0033 (KPC2). Briefly: MIC by broth microdilution, isogenic E. coli strain expressing KPC2. Conditions: Escherichia coli, read-out: Strain 2 MIC. On the procedure:
as §1, §2, §3, §4
For orientation: Broth dilution looks for growth in wells or tubes with falling amounts of substance.

In assay [3] the test system is E. coli NB27273-CDY0030 (SHV12). As to the kind of experiment: MIC by broth microdilution, isogenic E. coli strain expressing SHV12. Conditions: Escherichia coli, read-out: Strain 3 MIC. The method, then:
as §1, §2, §3, §4

A further assay deals with E. coli strain 25922. Briefly: MIC by broth microdilution, E. coli strain 25922. Conditions: Escherichia coli, 25922, E. coli strain 25922; read-out: Ec 25922 (MIC). The method in brief:
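CLSI broth microdilution in cation-adjusted Mueller-Hinton broth, inoculum about 5×10^5 CFU/mL, 10% DMSO from the diluted series, 20 h at 35-37° C. MIC is the lowest concentration preventing visible growth, read by eye and at 600 nm.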

A further assay deals with E. coli containing KPC-2. Briefly: MIC by broth microdilution, E. coli containing KPC-2 (Ec KPC2 Iso). Conditions: Escherichia coli, read-out: Ec KPC2 Iso (MIC), E. coli containing KPC-2 (carbapenemase from Klebsiella pneumoniae). The method in brief: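 Host E. coli BW25113 pspB carrying multicopy pBAD18-kan plasmid with constitutive TEM-promoter KPC-2 expression (periplasmic signal sequence); broth microdilution per CLSI in cation-adjusted Mueller-Hinton broth, inoculum ~5×10^5 CFU/mL, compounds twofold serially diluted from DMSO masters (10% DMSO in dilution series added).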

Converted amounts (≈) assume the structure as drawn.

The MIC is the lowest concentration found to suppress growth. Take `CC(C)(O/N=C(\C(=O)N[C@@H]1C(=O)N(S(=O)(=O)O)[C@@H]1CN1CCCC1=O)c1csc(N)n1)C(=O)O` [Example 1, 2-(((Z)-(1-(2-aminothiazol-4-yl)-2-oxo-2-(((3S,4R)-2-oxo-4-((2-oxopyrrolidin-1-yl)methyl)-1-sulfoazetidin-3-yl)amino)ethylidene)amino)oxy)-2-methylpropanoic acid]: the MIC came to 1 µg/mL (≈ 1.93 µM) in assay [1]; 2 µg/mL (≈ 3.86 µM) in assay [2]; 2 µg/mL (≈ 3.86 µM) in assay [3]; 16 µg/mL (≈ 30.9 µM) with E. coli strain 25922; 2 µg/mL (≈ 3.86 µM) with E. coli containing KPC-2.
